This note sets out measurements from ChEMBL document CHEMBL1142094, “Effects of glutathione and ascorbic acid on streptomycin sensitivity of Escherichia coli” (2007).

For assay [1], the system named is Escherichia coli. As to the kind of experiment: Susceptibility of Escherichia coli K12 MG1655 in presence of 10 mM glutathione by agar dilution method relative to control. The format is functional. In general terms: In agar dilution, organisms are placed on agar that contains the substance at set levels.
For assay [2], the system named is Escherichia coli. Kind of assay: Susceptibility of Escherichia coli K12 MG1655 by agar dilution method. The format is functional.
The subject of assay [3] is Escherichia coli. Kind of assay: Increase in ROS levels in Escherichia coli K12 MG1655 assessed as ratio of ROS with antibiotic to ROS without antibiotic. The format is functional.
The test system of assay [4] is Escherichia coli. As to the kind of experiment: Decrease in sensitivity of Escherichia coli K12 MG1655 assessed as reduction in zone of inhibition in presence of 10 mM glutathione by disk diffusion method. The format is functional, organism-based. Background: Agar diffusion results depend on both activity and mobility in agar.
Assay [5] relates to Escherichia coli. Kind of assay: Antibacterial activity against Escherichia coli K12 XL1 Blue in presence of 10 mM ascorbic acid. The format is functional.
In assay [6] the test system is Escherichia coli. As to the kind of experiment: Antibacterial activity against Escherichia coli K12 W3110. The format is functional.
The subject of assay [7] is Escherichia coli. As to the kind of experiment: Antibacterial activity against Escherichia coli K12 DH5alpha. The format is functional.
For assay [8], the system named is Escherichia coli. As to the kind of experiment: Antibacterial activity against Escherichia coli K12 MG1655 in presence of ascorbic acid by agar dilution method relative to control. The format is functional.
Assay [9] relates to Escherichia coli. As to the kind of experiment: Decrease in sensitivity of Escherichia coli K12 MG1655 assessed as reduction in zone of inhibition in presence of 10 mM ascorbic acid by disk diffusion method. The format is functional, organism-based.
Assay [10] deals with Escherichia coli. Kind of assay: Antibacterial activity against Escherichia coli K12 W3110 in presence of 10 mM ascorbic acid. The format is functional.
In assay [11] the test system is Escherichia coli. As to the kind of experiment: Antibacterial activity against Escherichia coli K12 XL1 Blue. The format is functional.
Assay [12] concerns Escherichia coli. Kind of assay: Antibacterial activity against Escherichia coli K12 DH5alpha in presence of 10 mM ascorbic acid. The format is functional.

Values after ≈ are worked out from the molar mass of the structure shown. Active and inactive are the calls of the source.

As to `O=C(N[C@H](CO)[C@H](O)c1ccc([N+](=O)[O-])cc1)C(Cl)Cl` [CHLORAMPHENICOL], the MIC in assay [1] was found to be 4 µg/mL; in assay [2], 8 µg/mL (≈ 24.8 µM).

For `O=C(O)c1cn(C2CC2)c2cc(N3CCNCC3)c(F)cc2c1=O` [CIPROFLOXACIN], the Ratio in assay [3] is recorded as 1.1.

Turning to `NC[C@H]1O[C@H](O[C@H]2[C@H](O)[C@@H](O[C@H]3O[C@H](CO)[C@@H](O)[C@H](N)[C@H]3O)[C@H](N)C[C@@H]2N)[C@H](O)[C@@H](O)[C@@H]1O` [KANAMYCIN], in [3], the Ratio is 0.87. For the same compound, the MIC is over 250 µg/mL in assay [1] and 6 µg/mL (≈ 12.4 µM) in [2].

Consider `CC1=CC(=O)c2ccccc2C1=O` [MENADIONE], for which the Ratio in assay [3] worked out at 2.02.

In the case of `CN[C@@H]1[C@H](O)[C@H](NC)[C@H]2O[C@@]3(O)C(=O)C[C@@H](C)O[C@H]3O[C@@H]2[C@H]1O` [SPECTINOMYCIN], the MIC in [1] was over 300 µg/mL; in assay [2], 20 µg/mL (≈ 60.2 µM).

As for `CN[C@@H]1[C@H](O[C@H]2[C@H](O[C@H]3[C@H](O)[C@@H](O)[C@H](N=C(N)N)[C@@H](O)[C@@H]3N=C(N)N)O[C@@H](C)[C@]2(O)C=O)O[C@@H](CO)[C@H](O)[C@H]1O` [STREPTOMYCIN], the result in assay [4] and in assay [9] was Active. Moreover, the Ratio in assay [3] amounted to 0.78. Besides, the MIC in [1] was over 250 µg/mL; in [5], over 8 µg/mL; in assay [6] it was 4 µg/mL (≈ 6.88 µM); in assay [7], 4 µg/mL (≈ 6.88 µM); in assay [8] it was 20 µg/mL; in assay [10] it was over 8 µg/mL. The MIC in assay [11] is 4 µg/mL (≈ 6.88 µM); in assay [12] it was over 8 µg/mL; in assay [2], 8 µg/mL (≈ 13.8 µM).

As to `CN(C)[C@@H]1C(O)=C(C(N)=O)C(=O)[C@@]2(O)C(O)=C3C(=O)c4c(O)cccc4[C@@](C)(O)[C@H]3C[C@@H]12` [TETRACYCLINE], the Ratio in assay [3] came to 0.96. Also, the MIC in assay [1] is 4 µg/mL; in assay [2], 4 µg/mL (≈ 9 µM).

For GENTAMICIN, in assay [3], the Ratio came to 1. The values for the MIC in assay [1] and in [2] were over 200 µg/mL and 2 µg/mL, respectively.

What is called MIC is the smallest concentration in the dilution series that meets the test's criterion for growth inhibition.
